In patent US8192935B2, “Methods for assessing cisplatin resistance, disease progression, and treatment efficacy in ovarian cancer as related to MetAP2 expression” (The Penn State Research Foundation, priority 2003, dated 2012):
Values joined by “and” are separate entries in the source; they are usually repeats but may differ in a detail not shown here. Identical values can stand only once. Like-named read-outs stand apart in the source and are kept apart here.

How the values were obtained:
OVCAR-3 cells [1] = experiment: tumor growth of OVCAR-3 cells in nude mice; format: in vivo; details: cis-platin 4 μg/kg IP 3 times a week for 2 weeks, then 1 week no treatment; one mouse
Method: The following protocol was developed for examining tumor growth using OVCAR-3 cells and nude mice: OVCAR-3 cells (15 million/injection) were inoculated under upper arm region of nude mice. Visible lumps appeared after 25 days. The tumors were measurable at about 35 days after inoculation and animals were then either treated with cis-platin at 4 μg/kg body weight administered by IP injection 3 times a week for 2 weeks, followed by 1 week with no treatment or treated with saline solution alone as control. […] A photograph of the tumors before and after cis-platin treatment is also shown.

OVCA 429 cells = details: for 429: increased sensitivity to cis-platin: OVCA 429 cells with specific siRNA
OVCAR-3 cells [2] = experiment: MTT assay, cis-platin sensitivity with siRNA; format: cell-based, human; details: OVCAR-3 cells with specific siRNA
NM23-D (BC004880) = experiment: siRNA-mediated knockdown of gene expression; format: cell-based, human; details: OVCA 429 cells
Vinexin 13 (AF037261) = experiment: siRNA-mediated knockdown of gene expression; format: cell-based, human; details: OVCA 429 cells
[3] = tested on: zinc finger protein 262/MYM (AB007885); experiment: siRNA-mediated knockdown of gene expression; format: cell-based, human; details: OVCA 429 cells
eIF5 (U49436) = experiment: siRNA-mediated knockdown of gene expression; format: cell-based, human; details: OVCA 429 cell

Molecule: N.N.[Cl][Pt][Cl] [cis-platin]
- tumor size (OVCAR-3 cells [1]): stabilization of the tumor size
- IC50 (OVCA 429 cells; read-out: IC50 of cis-platin alone, OVCA 429, 4 hours exposure (FIG. 40)): ~100 µM
- IC50 (OVCA 429 cells; read-out: IC50 of cis-platin, controls without specific siRNA or inhibitor, OVCA 429, 24 hour exposure, siPORT only or sense strand only): 25 to 50 µM and 25 µM and ~25 µM

Molecule: NM23D siRNA #3: siRNA to NM23-D; target sequence AATGTCATCCACGCCAGCGAC (guide AATGTCATCCACGCCAGCGAC; target site or template, no part of the molecule; listed as DNA, chemistry not given here; listed as Homo Sapiens)
- OVCAR-3: increased sensitivity to cis-platin (OVCAR-3 cells [2]): yes
- 429: increased sensitivity to cis-platin (OVCA 429 cells): yes
- reduction of NM23-D mRNA levels compared to control (NM23-D (BC004880)): approximately 50%

Molecule: Vinexin β siRNA #2: siRNA to Vinexin (AF037261); target sequence AAGAGTTACCTAGAAGCACCT (guide AAGAGTTACCTAGAAGCACCT; target site or template, no part of the molecule; listed as DNA, chemistry not given here; listed as Homo Sapiens)
- OVCAR-3: increased sensitivity to cis-platin (OVCAR-3 cells [2]): yes
- reduction of Vinexin mRNA levels compared to control (Vinexin 13 (AF037261)): approximately 50%
- 429: increased sensitivity to cis-platin (OVCA 429 cells): no

Molecule: Zinc finger protein 262/MYM siRNA #3: siRNA to zinc finger protein 262/MYM; target sequence AAAATATGGGAACCTACAATA (guide AAAATATGGGAACCTACAATA; target site or template, no part of the molecule; listed as DNA, chemistry not given here; listed as Homo Sapiens)
- OVCAR-3: increased sensitivity to cis-platin (OVCAR-3 cells [2]): yes
- 429: increased sensitivity to cis-platin (OVCA 429 cells): yes
- reduction of zinc finger protein 262/MYM mRNA levels compared to control [3]: approximately 45%

Molecule: eIF5 siRNA #1: siRNA to eIF5; target sequence AATGACCGTTACATTGTCAAT (guide AATGACCGTTACATTGTCAAT; target site or template, no part of the molecule; listed as DNA, chemistry not given here; listed as Homo Sapiens)
- OVCAR-3: increased sensitivity to cis-platin (OVCAR-3 cells [2]): yes
- reduction of eIF5 mRNA levels compared to control (eIF5 (U49436)): approximately 59%
- 429: increased sensitivity to cis-platin (OVCA 429 cells): yes
